Target: T1, OAT3 (Homo sapiens, UniProt Q8TCC7)
T1 construct: host or cells: S2 (second portion of proximal tubule) cells
T1 sequence (Q8TCC7 1-542): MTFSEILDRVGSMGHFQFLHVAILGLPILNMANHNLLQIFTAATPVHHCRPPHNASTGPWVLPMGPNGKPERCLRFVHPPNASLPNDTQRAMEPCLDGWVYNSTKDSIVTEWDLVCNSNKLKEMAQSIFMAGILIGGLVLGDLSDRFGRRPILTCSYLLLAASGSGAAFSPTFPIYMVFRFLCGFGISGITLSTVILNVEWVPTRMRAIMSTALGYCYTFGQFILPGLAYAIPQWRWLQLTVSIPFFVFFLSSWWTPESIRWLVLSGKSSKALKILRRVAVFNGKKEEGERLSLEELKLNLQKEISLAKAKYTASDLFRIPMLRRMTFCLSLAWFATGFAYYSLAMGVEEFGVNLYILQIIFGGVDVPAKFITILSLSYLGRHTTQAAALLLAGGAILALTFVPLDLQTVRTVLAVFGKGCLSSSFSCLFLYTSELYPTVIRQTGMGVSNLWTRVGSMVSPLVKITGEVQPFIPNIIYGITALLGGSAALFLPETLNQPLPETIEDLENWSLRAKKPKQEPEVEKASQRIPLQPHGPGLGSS
Assay: Inhibition of OAT3-mediated 3H-ES uptake in S2-OAT3 cells
Type: cell-based
Conditions: GA 50–5000 μg/L, PCA 10–1000 μg/L
Experimental: Cells were cultured in DMEM supplemented with 10% FBS, 100 units/mL penicillin and 100 units/mL streptomycin. […] Cell culture flasks, 24-well cell culture plates, and transwell polycarbonate inserts (12 mm diameter, 0.4 μm pore size) were purchased from Corning Co-star Corp. (Bedford, MA).
The MDCK-OAT1, S2-OAT3, S2-OCT2 and HEK293-OATP1B1 cell lines were utilized in this study. […] Briefly, S2-OAT3, S2-OCT2 and S2-mock cells were trypsinized and uniformly suspended in the culture medium’s designated volume to provide a density of 2.0 × 10^5 cells/mL. A 1.0-mL aliquot of the cell suspension was added into each well of 24-well insert plates. HEK293-OATP1B1, MDCK-OAT1 and their mock cells were seeded in 24-well plates at a density of 1.5 × 10^5 cells/well. […] Three washes terminated the experiment with ice-cold DPBS buffer after removing the incubation buffer. Cells were lysed with 400 μL of […] sodium hydroxide solution. The cell lysate and 3.0 mL of aquasol-2 scintillation fluid were put into a scintillation flask. […] The final concentration of DMSO in the assay was less than 0.1%. All experiments were performed in triplicate.

Compound: O=C(O)c1ccc(O)c(O)c1 [PCA, protocatechuic acid]
- inhibitory effect on OAT3: no significant inhibitory effect

Source: paper PMC8216263 (Pharmaceutical Biology, 2021)
